Data reported in patent US20160052926A1, “NOVEL PYRIMIDINE AND PYRIDINE COMPOUNDS AND USAGE THEREOF” (HUTCHISON MEDIPHARMA LIMITED, priority 2013, published 2016).

Legend:
FGFR3 kinase = FGFR3 kinase (Homo sapiens, UniProt P22607); assay: Z-Lyte Kinase Assay of FGFR3; assay type: biochemical
Procedure, shortened: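 FRET peptide-cleavage format: 1 h kinase reaction at RT (25-30[…]), then 1 h protease development, then stop and dual-emission read (Ex400, Em445/520 nm). Working solutions: kinase 0.7 μg/ml, Tyr 4 peptide 4 μM, ATP 300 uM in 1.33× buffer; eight compound concentrations from 1 μM, 2% DMSO final.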

Recombinant human FGFR2 = Recombinant human FGFR2 (Homo sapiens, UniProt P21802); assay: Transcreener Kinase Assay of FGFR2; assay type: biochemical; settings: read-out: FGFR2 (FP) IC50
Recombinant human FGFR2, sequence (P21802 22-821): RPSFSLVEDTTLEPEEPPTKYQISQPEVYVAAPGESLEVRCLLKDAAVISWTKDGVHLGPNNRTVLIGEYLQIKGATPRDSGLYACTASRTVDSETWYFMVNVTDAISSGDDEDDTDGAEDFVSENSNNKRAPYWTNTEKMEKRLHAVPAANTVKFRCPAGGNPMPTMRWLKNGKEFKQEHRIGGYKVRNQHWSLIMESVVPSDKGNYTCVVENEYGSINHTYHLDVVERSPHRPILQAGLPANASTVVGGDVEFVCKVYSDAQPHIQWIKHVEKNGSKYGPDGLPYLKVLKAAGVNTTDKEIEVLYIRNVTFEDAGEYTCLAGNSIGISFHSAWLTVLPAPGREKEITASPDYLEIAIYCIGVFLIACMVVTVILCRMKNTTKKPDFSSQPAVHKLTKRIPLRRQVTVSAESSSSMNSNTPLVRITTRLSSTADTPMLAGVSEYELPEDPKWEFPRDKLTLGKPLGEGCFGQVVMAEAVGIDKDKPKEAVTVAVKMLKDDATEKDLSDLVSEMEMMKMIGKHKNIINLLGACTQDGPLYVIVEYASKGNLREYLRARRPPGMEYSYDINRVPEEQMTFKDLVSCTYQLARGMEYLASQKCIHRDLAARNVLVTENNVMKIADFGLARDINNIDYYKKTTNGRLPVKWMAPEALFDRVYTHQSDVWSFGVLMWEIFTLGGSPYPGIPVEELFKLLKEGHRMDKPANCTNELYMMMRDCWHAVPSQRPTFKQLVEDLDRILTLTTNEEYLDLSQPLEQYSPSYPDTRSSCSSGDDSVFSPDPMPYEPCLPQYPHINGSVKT

KG-1 = assay: Cellular Proliferation Assay (Cell Counting Kit-8), KG-1; assay type: cell-based; settings: Homo sapiens, KG1 cells, 72 hours
Procedure, shortened: (§1)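 Proliferation was read as OD at 450 nm after 1 h with CCK-8, following 72 h drug exposure at 37 °C, 5% CO2. Inhibition was calculated against cells in 0.5% DMSO minus medium blank, and the 50% point reported. The compound series (10–0.004 μM, pre-addition, in 5% DMSO) was added one day after plating KG-1, SNU-16 and RT-112 at 30,000, 5,000 and 1,000 cells/well respectively.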

SNU-16 = assay: Cellular Proliferation Assay (Cell Counting Kit-8), SNU-16; assay type: cell-based; settings: Homo sapiens, SNU-16 cells, 72 hours
Procedure, shortened: as §1

RT-112 = assay: Cellular Proliferation Assay (Cell Counting Kit-8), RT-112; assay type: cell-based; settings: Homo sapiens, RT-112 cells, 72 hours
Procedure, shortened: as §1

Recombinant human FGFR1 = Recombinant human FGFR1 (Homo sapiens, UniProt P11362); assay: Transcreener Kinase Assay of FGFR1; assay type: biochemical; settings: read-out: FGFR1 (FP) IC50
Recombinant human FGFR1, sequence (P11362 22-822): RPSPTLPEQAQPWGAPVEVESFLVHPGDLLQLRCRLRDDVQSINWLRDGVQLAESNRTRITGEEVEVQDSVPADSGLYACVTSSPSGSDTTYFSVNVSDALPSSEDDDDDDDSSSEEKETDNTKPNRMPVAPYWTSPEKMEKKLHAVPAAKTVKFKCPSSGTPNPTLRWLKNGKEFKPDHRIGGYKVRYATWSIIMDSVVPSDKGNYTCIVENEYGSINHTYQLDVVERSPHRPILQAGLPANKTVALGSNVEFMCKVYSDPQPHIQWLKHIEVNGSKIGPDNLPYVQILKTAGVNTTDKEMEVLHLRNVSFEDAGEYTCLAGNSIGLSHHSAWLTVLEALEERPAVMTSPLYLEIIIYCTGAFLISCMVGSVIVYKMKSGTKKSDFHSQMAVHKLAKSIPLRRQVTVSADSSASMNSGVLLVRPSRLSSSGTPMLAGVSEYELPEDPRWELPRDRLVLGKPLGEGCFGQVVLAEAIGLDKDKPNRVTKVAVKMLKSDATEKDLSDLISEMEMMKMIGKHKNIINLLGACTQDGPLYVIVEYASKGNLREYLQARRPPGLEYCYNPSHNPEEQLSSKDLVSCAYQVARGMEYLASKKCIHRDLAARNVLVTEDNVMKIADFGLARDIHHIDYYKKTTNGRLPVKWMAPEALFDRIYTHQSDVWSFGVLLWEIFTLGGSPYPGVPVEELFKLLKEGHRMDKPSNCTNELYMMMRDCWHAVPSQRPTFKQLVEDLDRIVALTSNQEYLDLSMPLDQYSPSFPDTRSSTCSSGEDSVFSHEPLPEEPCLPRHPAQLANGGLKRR

FGFR3 kinase, sequence (P22607 23-806): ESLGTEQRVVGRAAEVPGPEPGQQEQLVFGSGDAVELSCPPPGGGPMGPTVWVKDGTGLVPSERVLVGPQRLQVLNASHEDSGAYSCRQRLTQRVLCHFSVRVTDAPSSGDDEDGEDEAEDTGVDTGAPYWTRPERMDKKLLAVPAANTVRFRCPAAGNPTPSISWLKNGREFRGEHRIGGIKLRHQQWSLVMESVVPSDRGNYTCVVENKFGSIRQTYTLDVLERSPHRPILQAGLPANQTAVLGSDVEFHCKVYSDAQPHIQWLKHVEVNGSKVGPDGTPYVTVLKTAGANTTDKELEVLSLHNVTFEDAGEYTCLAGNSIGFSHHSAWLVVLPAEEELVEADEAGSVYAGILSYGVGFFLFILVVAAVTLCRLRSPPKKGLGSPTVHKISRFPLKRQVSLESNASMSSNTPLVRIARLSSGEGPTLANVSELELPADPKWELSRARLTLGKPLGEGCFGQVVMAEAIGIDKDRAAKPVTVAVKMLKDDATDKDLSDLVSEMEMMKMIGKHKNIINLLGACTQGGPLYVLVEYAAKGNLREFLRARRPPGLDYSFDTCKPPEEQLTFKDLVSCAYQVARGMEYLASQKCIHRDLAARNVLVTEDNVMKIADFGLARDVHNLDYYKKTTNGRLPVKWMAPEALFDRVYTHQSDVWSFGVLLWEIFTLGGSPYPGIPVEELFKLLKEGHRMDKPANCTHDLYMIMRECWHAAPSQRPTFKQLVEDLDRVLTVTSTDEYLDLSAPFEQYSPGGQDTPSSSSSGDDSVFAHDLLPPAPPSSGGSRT

SMILES: CONC(=O)c1cc(CCc2cnc(Nc3ccc4nccn4c3)nc2)cc(OC)c1 [Compound 65]
- IC50 (FGFR3 kinase): 112 nM
- IC50 (Recombinant human FGFR2): 28 nM
- IC50 (KG-1): 203 nM
- IC50 (SNU-16): 55 nM
- IC50 (RT-112): 296 nM
- IC50 (Recombinant human FGFR1): 48 nM

SMILES: CNC(=O)c1cc(CCc2cnc(Nc3ccc4c(c3)OCO4)nc2)c(F)c(OC)c1 [Compound 31]
- IC50 (FGFR3 kinase): 287 nM
- IC50 (Recombinant human FGFR2): 23 nM
- IC50 (KG-1): 178 nM
- IC50 (SNU-16): 236 nM
- IC50 (RT-112): 491 nM
- IC50 (Recombinant human FGFR1): 42 nM

SMILES: CNC(=O)c1cc(CCc2ccc(Nc3cnn(C)c3)nc2)c(F)c(OC)c1 [Compound 103]
- IC50 (FGFR3 kinase): 47 nM
- IC50 (Recombinant human FGFR2): 21 nM
- IC50 (KG-1): 138 nM
- IC50 (SNU-16): 139 nM
- IC50 (RT-112): 659 nM
- IC50 (Recombinant human FGFR1): 32 nM

SMILES: CNC(=O)c1cc(CCc2cnc(Nc3cnn(CCN(C)C)c3)nc2)c(F)c(OC)c1 [Compound 125]
- IC50 (FGFR3 kinase): 20 nM
- IC50 (Recombinant human FGFR2): 19 nM
- IC50 (KG-1): 30 nM
- IC50 (SNU-16): 29 nM
- IC50 (RT-112): 750 nM
- IC50 (Recombinant human FGFR1): 28 nM

SMILES: CNC(=O)c1cc(CCc2cnc(Nc3ccc(N4C[C@@H](C)N[C@@H](C)C4)c(F)c3)nc2)c(Cl)c(OC)c1 [Compound 204]
- IC50 (FGFR3 kinase): 8 nM
- IC50 (Recombinant human FGFR2): 5 nM
- IC50 (KG-1): 18 nM
- IC50 (SNU-16): 7 nM
- IC50 (RT-112): 15 nM
- IC50 (Recombinant human FGFR1): 9 nM

SMILES: CCn1cc(Nc2ncc(CCc3cc(C(=O)NC)cc(OC)c3Br)cn2)cn1 [Compound 83]
- IC50 (FGFR3 kinase): 35 nM
- IC50 (Recombinant human FGFR2): 9 nM
- IC50 (KG-1): 53 nM
- IC50 (SNU-16): 55 nM
- IC50 (RT-112): 201 nM
- IC50 (Recombinant human FGFR1): 15 nM

SMILES: CCn1cc(Nc2ncc(/C=C/c3c(F)c(C(=O)NC)cc(OC)c3Cl)cn2)cn1 [Compound 2]
- IC50 (FGFR3 kinase): 17 nM
- IC50 (Recombinant human FGFR2): 10 nM
- IC50 (KG-1): 17 nM
- IC50 (SNU-16): 31 nM
- IC50 (RT-112): 19 nM
- IC50 (Recombinant human FGFR1): 17 nM

SMILES: CNC(=O)c1cc(CCc2cnc(Nc3cnn(Cc4ccccn4)c3)nc2)c(F)c(OC)c1 [Compound 142]
- IC50 (FGFR3 kinase): 28 nM
- IC50 (Recombinant human FGFR2): 11 nM
- IC50 (KG-1): 60 nM
- IC50 (SNU-16): 28 nM
- IC50 (RT-112): 208 nM
- IC50 (Recombinant human FGFR1): 20 nM

SMILES: CCN1CCC(n2cc(Nc3ncc(CCc4cc(C(=O)NC)cc(OC)c4Cl)cn3)cn2)CC1 [Compound 178]
- IC50 (FGFR3 kinase): 18 nM
- IC50 (Recombinant human FGFR2): 15 nM
- IC50 (KG-1): 72 nM
- IC50 (SNU-16): 27 nM
- IC50 (RT-112): 186 nM
- IC50 (Recombinant human FGFR1): 14 nM

SMILES: CNC(=O)c1cc(CCc2cnc(Nc3cnn(CCO)c3)nc2)c(Cl)c(OC)c1 [Compound 148]
- IC50 (FGFR3 kinase): 14 nM
- IC50 (Recombinant human FGFR2): 5 nM
- IC50 (KG-1): 24 nM
- IC50 (SNU-16): 59 nM
- IC50 (RT-112): 495 nM
- IC50 (Recombinant human FGFR1): 9 nM

SMILES: CNC(=O)c1cc(CCc2cnc(Nc3cnn(CC4CCN(C)CC4)c3)nc2)c(Cl)c(OC)c1 [Compound 154]
- IC50 (FGFR3 kinase): 9 nM
- IC50 (Recombinant human FGFR2): 5 nM
- IC50 (KG-1): 370 nM
- IC50 (SNU-16): 16 nM
- IC50 (RT-112): 21 nM
- IC50 (Recombinant human FGFR1): 12 nM

SMILES: CNC(=O)c1cc(CCc2cnc(Nc3cnn(C4CC4)c3)nc2)c(Cl)c(OC)c1 [Compound 119]
- IC50 (FGFR3 kinase): 19 nM
- IC50 (Recombinant human FGFR2): 6 nM
- IC50 (KG-1): 22 nM
- IC50 (SNU-16): 27 nM
- IC50 (RT-112): 124 nM
- IC50 (Recombinant human FGFR1): 11 nM

SMILES: CCN1CCC(n2cc(Nc3ncc(CCc4cc(C(=O)NC)cc(OC)c4F)cn3)cn2)CC1 [Compound 176]
- IC50 (FGFR3 kinase): 8 nM
- IC50 (Recombinant human FGFR2): 7 nM
- IC50 (KG-1): 66 nM
- IC50 (SNU-16): 17 nM
- IC50 (RT-112): 100 nM
- IC50 (Recombinant human FGFR1): 7 nM

SMILES: CNC(=O)c1cc(CCc2cnc(Nc3cnn(C4CCN(C)CC4)c3)nc2)c(F)c(OC)c1 [Compound 173]
- IC50 (FGFR3 kinase): 28 nM
- IC50 (Recombinant human FGFR2): 7 nM
- IC50 (KG-1): 41 nM
- IC50 (SNU-16): 20 nM
- IC50 (RT-112): 135 nM
- IC50 (Recombinant human FGFR1): 8 nM
